In brackets after ≈: the same amount, converted by molar mass. Several values for one entry are separate records, joined by “and”; a condition that tells them apart may be missing. Equal values may be shown once. Read-outs that look alike come from different tables or passages of the source.

As a reminder, the IC50 is the midpoint of a concentration-inhibition curve. What is called logD is lipophilicity at a set pH, counting ionised and neutral species. The CLint scaled is a measure of how fast metabolising enzymes remove a compound, apart from limits set by blood flow. High values mean faster metabolism, low ones greater metabolic stability.

For one series, the system named is rat DRG neurons. The series is described as follows: Rat DRG neurons, capsaicin-evoked action potential firing. The series is classed as cell-based. The conditions noted are these: for IC50: capsaicin 1 μM, read-out: Rat DRGs, CAP IC50. An excerpt: rDRGs isolation and primary cell culture: Briefly, rat DRGs from all spinal levels were carefully removed and collected in HBSS on ices, connective tissue of the epineurium surrounding the ganglion was removed and cells were dissociated using Collagenase-II and trypsin dissociation solutions. DRGs were dissociated further, passed through glass Pasteur pipettes to obtain single cells. Then dissociation solution was changed to 5% FBS containing DRG neuronal culture medium and plated onto ECL coated 12 mm cover glass.
Additional rDRGs experiments were performed using Lonza primary neonatal rat (Sprague Dawley neonatal; P2,3) DRG neurons (R-DRG-505, Lonza) plated and cultured according to the manufacturer.
Electrophysiology: Cells were used for electrophysiological recording at least 48 hours following rDRG isolation or at least 5 days following cryopreserved rDRG thawing. Round small neurons (20-40 μm in diameter) were selected for electrophysiology recordings, to select for small nociceptive neurons that propagate pain sensation in vivo and that are expressing both Kv7.2/3 and TRPV1 targets. Membrane excitability was monitored using current clamp configuration of the whole-cell patch-clamp technique. Positive current steps of different amplitude were injected (400 ms) to induce spikes trains before and following compound application.
To assess the potency of compounds using DRG neurons, the inhibitory potency for CAP-evoked action potential (AP) trains was measured. For this purpose, DRG membrane potential was continuously measured, and the following protocol was performed:
Cells were perfused with vehicle containing bath solution. After 30 seconds, CAP (1 μM) was applied for 6 seconds to activate TRPV1 and stimulate AP trains.
After 30 seconds of perfusion with bath solution containing only vehicle, perfusion was changed to a bath solution containing compound, and after 3 minutes of compound application, CAP (1 μM) was applied again for 6 seconds to activate TRPV1 and stimulate AP trains.
Cells perfusion was changed back to bath solution containing only vehicle and after 3 minutes of compound washout, CAP (1 μM) was applied again for 6 seconds to activate TRPV1 and stimulate AP trains.
To evaluate the drug/control response, the number of AP spikes induced by CAP following incubation with test compound was divided by the average number of control AP spikes induced without compound, before compound incubation, and following its washout.

Series [1] can be described thus: Log D, 1-octanol/buffer shake flask. The series is classed as physicochemical. The conditions noted are these: pH 7.4. Put shortly: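 Compound from a 10 mM DMSO stock was partitioned between mutually saturated 1-octanol and 0.1 M phosphate buffer by shaking for 1 h at room temperature, then centrifuged. Each phase was diluted and quantified by LC/MS/MS. Log D came from the ratio of dilution- and internal-standard-corrected peak areas.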

The next series in a line: Kinetic solubility. The conditions noted are these: for solubility kinetic: hhbs buffer, aqueous buffer. It is filed as physicochemical. The procedure: Solubility measurements were performed prior to each in vitro assay to ensure accurate dose response and reproducibility. Briefly, each compound was dissolved to 60 mM in DMSO and calibration curve was performed from 1.5-200 μM using absorbance spectra analysis and determination of λmax. Calibration curve served as the readout for all following assays. The 60 mM stock solution was used to make a 120 μM target concentration of 0.2% DMSO in the appropriate buffer of the in vitro related assay (i.e. HHBS buffer). Solubilized compounds were vortex for 10 minutes followed by centrifugation for 15 minutes in 5000 RPM and the supernatant was recovered for absorbance spectra analysis between 200-400 nm.

Series [2] in a line: Human liver microsome metabolic stability. The series is classed as in vitro ADME. The settings on record: for half-life at 1 µM: human, liver microsomes, read-out: HLM T1/2; for microsomal CLint at 1 µM: read-out: HLM Clint. The essentials:
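Compound at 1 μM was incubated at 37 °C with pooled liver microsomes at 0.5 mg/mL and an NADPH regenerating system (about 1.0 mM). Samples were taken from 0 to 60 min, quenched in cold acetonitrile and quantified by LC-MS/MS against an internal standard. CLint was scaled with species liver weights (rat 40 g/kg, human 20 g/kg).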
(In general: Microsomes from liver hold many membrane-bound enzymes, among them those of drug oxidation.)

The mark [3] stands for this setting: 1-octanol/phosphate buffer, read-out: LogD.
[4] abbreviates: Tables 4 and 11, read-out: Kinetic Sol.
Setting [5] is: Table 1, read-out: Kinetic Sol.

In the case of `O=C(Cc1nccc(-n2cc(Cl)c3cc(Cl)cc(Cl)c32)n1)NC1COCC1O` (stereo not drawn) [Compound 760], in the series with rat DRG neurons (1 nM), the “Inhibition of capsaicin-evoked action potential firing” value is on record as “about 90%”. Also, the half-maximal inhibitory concentration (IC50) with rat DRG neurons was 230 pM. Besides, the logD in series [1] (setting [3]) was found to be 3.28. Moreover, the solubility kinetic in “Kinetic solubility” (setting [4]) stood at 57000 µM (≈ 25200 µg/mL); in “Kinetic solubility” (read-out: Kinetic solubility) it was 57 µM (≈ 25.2 µg/mL). Moreover, in series [2], the “HLM and/or Rat PK clearance rates compared to compound 661” value is “improved HLM and/or Rat PK clearance rates compared to compound 661”.

Consider `CC(C)c1cc(Cl)cc(Cl)c1Nc1ccc(F)c(CC(=O)NCC(C)(C)O)c1` [NH91, reference compound], for which the IC50 in the series with rat DRG neurons was 500000 pM. Besides, the logD in series [1] (setting [3]) came to 4.66. Also, the solubility kinetic was determined as 20 µM (≈ 8.55 µg/mL) in “Kinetic solubility” (Kinetic Sol., Tables 4 and 11); 20 µM (≈ 8.55 µg/mL) in the series “Kinetic solubility” (read-out: Kinetic solubility). Also, in series [2] (human liver microsomes), the half-life at 1 µM is 7.4 min.

In the case of `O=C(Cc1cc(-n2cc(Cl)c3cc(Cl)cc(Cl)c32)ccc1F)NCCO` [Compound 627], the “Inhibition of capsaicin-evoked action potential firing” value is “about 50%” with rat DRG neurons (0.1 nM) and “completely blocked” with rat DRG neurons (1 nM). In the series with rat DRG neurons, the IC50 is 100 pM.

In the case of `COC[C@@H](CO)NC(=O)Cc1cc(Sc2c(Cl)cc(F)cc2C(C)C)ccc1F` [Compound 415], the log distribution coefficient (logD) in series [1] (setting [3]) stood at 4.25. Moreover, the solubility kinetic in “Kinetic solubility” (setting [5]) is 26.7 µM (≈ 11.9 µg/mL). Besides, in series [2] (human liver microsomes), the microsomal CLint at 1 µM was determined as 839 µL/min/mg.

With `O=C(Cc1ccnc(-n2cc(Cl)c3cc(Cl)cc(Cl)c32)n1)N[C@@H]1COC[C@H]1O` [Compound 820], the pH-dependent lipophilicity (logD) in series [1] (setting [3]) was found to be 3.82. In series [2], the “HLM and/or Rat PK clearance rates compared to compound 661” value is “improved HLM and/or Rat PK clearance rates compared to compound 661”. In series [2] (human liver microsomes), the half-life at 1 µM worked out at 33.8 min.

Turning to `Cc1cn(-c2ccc(F)c(CC(=O)NCC(C)(C)O)c2)c2c(Cl)cc(Cl)cc12` [Compound 421], the IC50 in the series on rat DRG neurons (listed as BS421) and in the series with rat DRG neurons was 25000 pM in each case. Also, in series [1] (setting [3]), the logD turned out to be 5.45. Moreover, in “Kinetic solubility” (setting [4]), the solubility kinetic was found to be 3400 µM (≈ 1440 µg/mL). Moreover, the intrinsic clearance (CLint scaled) at 1 µM in series [2] (human liver microsomes) was 50 mL/min/kg. For the same molecule, the half-life at 1 µM in series [2] (human liver microsomes) stood at 25 min.

As to `O=C(Cc1cncc(-n2cc(Cl)c3cc(Cl)cc(Cl)c32)c1)N[C@@H]1COC[C@H]1O` [Compound 661], the 50% inhibitory concentration (IC50) in the series on rat DRG neurons (listed as BS661) was 2 pM; with rat DRG neurons, 3 pM and 2 pM and < 3 pM. In series [1] (setting [3]), the logD was 3.55. Moreover, the figures for the solubility kinetic in “Kinetic solubility” (setting [5]) and in “Kinetic solubility” (setting [4]) were 40 µM (≈ 17.6 µg/mL) and 37000 µM (≈ 16300 µg/mL), respectively. Moreover, the intrinsic clearance (CLint scaled) at 1 µM in series [2] (human liver microsomes) came to 64.8 mL/min/kg. Moreover, the “HLM T1/2” value in series [2] (human liver microsomes, 1 µM) came out at 19.3 min. For the same molecule, the microsomal CLint at 1 µM in series [2] (human liver microsomes) came out at 72 µL/min/mg. The half-life at 1 µM in series [2] (human liver microsomes) amounted to 19.2 min.

With `CC(C)c1cc(Cl)cc(Cl)c1C(=O)c1ccc(F)c(CC(=O)NCC(C)(C)O)c1` [Compound 417-4], in series [1] (setting [3]), the pH-dependent lipophilicity (logD) was determined as 4.08. The solubility kinetic in “Kinetic solubility” (setting [5]) stood at 66 µM (≈ 29.1 µg/mL). Besides, the microsomal CLint at 1 µM in series [2] (human liver microsomes) was 91.8 µL/min/mg.

`Cc1cn(-c2ccc(F)c(CC(=O)NCC(C)(C)O)c2)c2c(Cl)cc(Cl)cc12` [Compound 421-6]: the “Inhibition of capsaicin induced AP response” value came to 63.4±17.8% in the series with rat DRG neurons (100 nM) and 86.5±8.4% in the series on rat DRG neurons (500 nM). In the series on rat DRG neurons (2 μM), the “Inhibition of AP response to capsaicin” value came to 97.9±2.1%. For the same molecule, the 50% inhibitory concentration (IC50) in the series on rat DRG neurons was under 100000 pM. Also, the log distribution coefficient (logD) in series [1] is recorded as 5.47. In addition, in the series “Kinetic solubility” (Table 1), the “Kinetic Sol.” value came to 3.4. In series [2] (human liver microsomes, 1 µM), the “HLM Clint” value stood at 55.5 µL/min/mg.

Take `O=C(Cc1cc(-n2cc(C(F)(F)F)c3cc(Cl)cc(Cl)c32)ncn1)NCCO` [Compound 843]: the logD in series [1] (setting [3]) was found to be 3.75. In addition, in series [2], the “HLM and/or Rat PK clearance rates compared to compound 661” value was “improved HLM and/or Rat PK clearance rates compared to compound 661”. The half-life at 1 µM in series [2] (human liver microsomes) was over 145 min.

The record behind these values is patent publication US20260327211A1, “MODULATORS OF A POTASSIUM CHANNEL AND OF TRPV1 CHANNEL AND USES THEREOF” (Bsense Bio Therapeutics Ltd., priority 2023, published 2026).
